Legend:
[1] = target: T1, NADPH oxidase 1 (Homo sapiens, UniProt Q9Y5S8); experiment: Inhibition of human NOX1 expressed in Drosophila DUOX knockdown model assessed as decrease in ROS production by lucigenin chemiluminescence assay
T1 sequence (Q9Y5S8 whole entry): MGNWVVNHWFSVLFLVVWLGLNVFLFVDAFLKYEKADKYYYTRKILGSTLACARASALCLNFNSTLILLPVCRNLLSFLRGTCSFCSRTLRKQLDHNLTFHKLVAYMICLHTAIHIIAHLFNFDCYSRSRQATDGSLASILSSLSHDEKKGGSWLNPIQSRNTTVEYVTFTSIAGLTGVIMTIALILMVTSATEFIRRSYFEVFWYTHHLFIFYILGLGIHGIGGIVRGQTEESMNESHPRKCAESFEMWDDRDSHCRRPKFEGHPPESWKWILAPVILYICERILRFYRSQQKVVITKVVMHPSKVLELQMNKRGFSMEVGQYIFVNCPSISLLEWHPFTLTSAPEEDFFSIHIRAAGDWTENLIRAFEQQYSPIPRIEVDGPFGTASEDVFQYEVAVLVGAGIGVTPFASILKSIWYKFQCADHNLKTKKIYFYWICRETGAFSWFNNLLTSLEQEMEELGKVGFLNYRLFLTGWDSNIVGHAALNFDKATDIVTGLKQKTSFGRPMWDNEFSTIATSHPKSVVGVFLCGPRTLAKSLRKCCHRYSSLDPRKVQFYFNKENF

[2] = target: T2, NADPH oxidase 4 (Homo sapiens, UniProt Q9NPH5); experiment: Inhibition of human NOX4 expressed in Drosophila DUOX knockdown model assessed as decrease in ROS production by lucigenin chemiluminescence assay
T2 sequence (Q9NPH5 whole entry): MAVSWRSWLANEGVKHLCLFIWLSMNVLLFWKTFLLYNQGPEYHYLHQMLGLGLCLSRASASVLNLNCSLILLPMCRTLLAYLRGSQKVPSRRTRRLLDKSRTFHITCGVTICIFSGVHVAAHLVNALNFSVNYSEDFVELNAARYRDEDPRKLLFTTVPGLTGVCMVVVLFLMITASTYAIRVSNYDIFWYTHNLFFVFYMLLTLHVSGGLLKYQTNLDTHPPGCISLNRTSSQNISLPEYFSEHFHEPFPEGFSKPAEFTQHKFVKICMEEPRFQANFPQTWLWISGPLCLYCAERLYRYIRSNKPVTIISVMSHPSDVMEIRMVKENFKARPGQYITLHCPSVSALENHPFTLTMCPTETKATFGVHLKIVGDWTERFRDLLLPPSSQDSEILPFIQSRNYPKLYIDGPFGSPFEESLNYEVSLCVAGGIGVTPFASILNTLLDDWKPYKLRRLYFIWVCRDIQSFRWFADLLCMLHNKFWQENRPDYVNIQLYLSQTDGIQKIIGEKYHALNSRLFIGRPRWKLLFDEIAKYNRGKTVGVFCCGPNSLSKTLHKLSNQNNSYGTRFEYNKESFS

[3] = species on record: Homo sapiens; experiment: Selectivity ratio of Ki for human NOX1 expressed in Drosophila DUOX knockdown model to Ki for human NOX4 expressed in Drosophila DUOX knockdown model

Structure (SMILES) | Ki [1] [µM] | Ki [2] [µM] | Ratio Ki [3]
CN1C(=S)N(C2CCCCC2)C(=O)/C1=C/c1cccc(O)c1O | 7.39 | 6.35 | –
CN1C(=S)N(c2cccc(Cl)c2)C(=O)/C1=C/c1ccc(O)cc1O | 34.5 | 33.8 | –
Cc1ccc(N2C(=O)/C(=C/c3cccc(O)c3O)N(C)C2=S)cc1 | 50.3 | 27 | –
CN1C(=S)N(C2CCCCC2)C(=O)/C1=C/c1ccc(N(C)C)cc1 | 12.3 | 35.6 | –
CN1C(=S)N(c2ccccc2)C(=O)/C1=C/c1ccc(N(C)C)cc1 | 1.95 | 0.88 | 2.2
Cc1ccc(N2C(=O)/C(=C/c3ccc(O)cc3O)N(C)C2=S)cc1 | 27.1 | 34.6 | –
CN1C(=S)N(c2cccc(Cl)c2)C(=O)/C1=C/c1ccc(N(C)C)cc1 | 0.35 | 0.84 | –
CCc1ccc(N2C(=O)/C(=C/c3ccc(N(C)C)cc3)N(C)C2=S)cc1 | 4.39 | 2.63 | –
CCc1ccc(N2C(=O)/C(=C/c3cccc(O)c3O)N(C)C2=S)cc1 | 27.9 | 26.4 | –
CN1C(=S)N(c2ccccc2)C(=O)/C1=C/c1cccc(O)c1O | 49.7 | 24 | –
CN1C(=S)N(c2cccc(Cl)c2)C(=O)/C1=C/c1cccc(O)c1O | 7.65 | 9.31 | –
CN1C(=S)N(c2ccc3c(c2)CCC3)C(=O)/C1=C/c1cccc(O)c1O | 6.63 | 2.36 | 2.8
CCc1ccc(N2C(=O)/C(=C/c3ccc(O)cc3O)N(C)C2=S)cc1 | 8.4 | 2.39 | 3.5
Cc1ccc(N2C(=O)/C(=C/c3ccc(N(C)C)cc3)N(C)C2=S)cc1 | 1.02 | 2.33 | –
CN1C(=S)N(c2ccc3c(c2)CCC3)C(=O)/C1=C/c1ccc(N(C)C)cc1 | 8.04 | 13.1 | –
CN1C(=S)N(c2ccccc2)C(=O)/C1=C/c1ccc(O)cc1O | 33.8 | 27.7 | –
CN1C(=S)N(c2ccc3c(c2)CCC3)C(=O)/C1=C/c1ccc(O)cc1O | 6.58 | 6.83 | –
CN1C(=S)N(C2CCCCC2)C(=O)/C1=C/c1ccc(O)cc1O | 26 | 37.6 | –
